Experimental data published in patent US7932270B2 (Cytokinetics, Inc., priority 2006, dated 2011).

What follows are compounds tested against T1, chicken gizzard smooth muscle myosin subfragment-1 chemically crosslinked to cardiac or skeletal actin (Gallus gallus, UniProt P10587) (assay: Smooth muscle myosin ATPase dose response assay (pyruvate kinase/horseradish peroxidase/pyruvate oxidase-coupled, amplex red fluorescence)). Details: read-out: IC50 Arithmetic Mean.
T1 construct: chicken gizzard smooth muscle myosin subfragment-1; from tissue; host or cells: chicken gizzard
Format: biochemical
Outline: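 Readout is amplex red signal from coupled ATPase of actin-crosslinked gizzard myosin S1 (0.15 mM ATP, 12 mM K-PIPES, pH 7.00). IC50 is the half-maximal activity point of a four-parameter Hill fit.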

T1 sequence (P02607 2-151): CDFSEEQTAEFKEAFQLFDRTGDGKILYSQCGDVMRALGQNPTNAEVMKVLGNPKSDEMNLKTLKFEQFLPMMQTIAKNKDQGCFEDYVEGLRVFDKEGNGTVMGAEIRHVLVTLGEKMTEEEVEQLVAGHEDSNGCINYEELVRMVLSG
T1 sequence (P10587 84-789): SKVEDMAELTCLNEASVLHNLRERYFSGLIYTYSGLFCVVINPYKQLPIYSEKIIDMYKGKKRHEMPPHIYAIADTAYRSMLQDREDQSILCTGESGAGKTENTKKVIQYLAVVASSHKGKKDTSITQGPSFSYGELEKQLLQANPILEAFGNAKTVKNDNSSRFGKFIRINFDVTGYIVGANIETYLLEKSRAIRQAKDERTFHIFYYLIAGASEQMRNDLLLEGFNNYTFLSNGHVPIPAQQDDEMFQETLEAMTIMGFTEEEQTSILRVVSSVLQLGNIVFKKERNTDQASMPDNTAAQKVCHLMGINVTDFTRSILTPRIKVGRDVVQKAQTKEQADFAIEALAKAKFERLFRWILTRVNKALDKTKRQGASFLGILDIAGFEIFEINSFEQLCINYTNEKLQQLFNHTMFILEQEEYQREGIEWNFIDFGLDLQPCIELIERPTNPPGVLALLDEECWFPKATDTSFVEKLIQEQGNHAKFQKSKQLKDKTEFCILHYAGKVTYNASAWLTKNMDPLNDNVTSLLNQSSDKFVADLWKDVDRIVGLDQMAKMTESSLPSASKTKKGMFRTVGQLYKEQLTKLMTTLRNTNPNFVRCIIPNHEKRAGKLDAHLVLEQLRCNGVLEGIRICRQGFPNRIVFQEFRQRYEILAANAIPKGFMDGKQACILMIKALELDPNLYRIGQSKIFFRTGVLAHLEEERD

Q: How did the IC50 turn out when Cn1cc(-c2nc(NCCc3cccc(F)c3)c(C(=O)NC[C@H]3CCCN3C(=O)C(O)CO)cc2F)cn1 (stereo partly drawn) [N-{[(2R)-1-(2,3-dihydroxypropanoyl)pyrrolidin-2-yl]methyl}(5-fluoro-2-{[2-(3-fluorophenyl)ethyl]amino}-6-(1-methylpyrazol-4-yl)(3-pyridyl))carboxamide] was run?
A: Its IC50 is 143 nM.

Q: How did the IC50 turn out when N#Cc1ccccc1-c1nc(NCCc2cccc(F)c2)c(C(=O)NC[C@H]2CCCN2C(=O)C(O)CO)cc1F (stereo partly drawn) [N-{[(2R)-1-(2,3-dihydroxypropanoyl)pyrrolidin-2-yl]methyl}(6-(2-cyanophenyl)-5-fluoro-2-{[2-(3-fluorophenyl)ethyl]amino}(3-pyridyl))carboxamide] was run?
A: Its IC50 is 110 nM.

Q: How did the IC50 turn out when N#Cc1ccccc1-c1ccc(C(=O)NC[C@H]2CCCCN2C(=O)CN)c(NCCc2cccc(F)c2)n1 [N-{[(2R)-1-(2-aminoacetyl)(2-piperidyl)]methyl}(6-(2-cyanophenyl)-2-{[2-(3-fluorophenyl)ethyl]amino}(3-pyridyl))carboxamide] was run?
A: The IC50 was 92 nM.

Q: With NCC(=O)N1CC[C@@H]1CNC(=O)c1ccc(-c2cn[nH]c2)nc1NCCc1cccc(F)c1 [N-{[(2R)-1-(2-aminoacetyl)azetidin-2-yl]methyl}(2-{[2-(3-fluorophenyl)ethyl]amino}-6-pyrazol-4-yl(3-pyridyl))carboxamide] as the compound, how does the IC50 read?
A: The IC50 was 562 nM.

Q: With Cn1cc(-c2nc(NCCc3cccc(F)c3)c(C(=O)NC[C@H]3CCN3C(=O)CN)cc2F)cn1 [N-{[(2R)-1-(2-aminoacetyl)azetidin-2-yl]methyl}(5-fluoro-2-{[2-(3-fluorophenyl)ethyl]amino}-6-(1-methylpyrazol-4-yl)(3-pyridyl))carboxamide] as the compound, how does the IC50 read?
A: The IC50 was 50 nM.

Q: For N#Cc1ccccc1-c1ccc(C(=O)NC[C@H]2CCN2C(=O)CN)c(NCCc2cccc(F)c2)n1 [N-{[(2R)-1-(2-aminoacetyl)azetidin-2-yl]methyl}(6-(2-cyanophenyl)-2-{[2-(3-fluorophenyl)ethyl]amino}(3-pyridyl))carboxamide], which IC50 is on record?
A: The IC50 was 44 nM.

Q: For N#Cc1ccccc1-c1ccc(C(=O)NC[C@H]2CNCCN2C(=O)CN)c(NCCc2cccc(F)c2)n1 [N-{[(2R)-1-(2-aminoacetyl)piperazin-2-yl]methyl}(6-(2-cyanophenyl)-2-{[2-(3-fluorophenyl)ethyl]amino}(3-pyridyl))carboxamide], which IC50 is on record?
A: Its IC50 is 2780 nM.

Q: With Cn1cc(-c2ccc(C(=O)NC[C@H]3CCCN3C(=O)CN)c(NCCc3cccc(F)c3)n2)cn1 [N-{[(2R)-1-(2-aminoacetyl)pyrrolidin-2-yl]methyl}(2-{[2-(3-fluorophenyl)ethyl]amino}-6-(1-methylpyrazol-4-yl)(3-pyridyl))carboxamide] as the compound, how does the IC50 read?
A: The IC50 was 581 nM.

Q: How did the IC50 turn out when Cn1cc(-c2nc(NCCc3cccc(F)c3)c(C(=O)NC[C@H]3CCCN3C(=O)CN)cc2F)cn1 [N-{[(2R)-1-(2-aminoacetyl)pyrrolidin-2-yl]methyl}(5-fluoro-2-{[2-(3-fluorophenyl)ethyl]amino}-6-(1-methylpyrazol-4-yl)(3-pyridyl))carboxamide] was run?
A: The IC50 was 66 nM.

Q: How did the IC50 turn out when NCC(=O)N1CCC[C@@H]1CNC(=O)c1cc(F)c(-c2cc[nH]n2)nc1NCCc1cccc(F)c1 [N-{[(2R)-1-(2-aminoacetyl)pyrrolidin-2-yl]methyl}(5-fluoro-2-{[2-(3-fluorophenyl)ethyl]amino}-6-pyrazol-3-yl(3-pyridyl))carboxamide] was run?
A: Its IC50 is 108 nM.

Q: NCC(=O)N1CCC[C@@H]1CNC(=O)c1cc(F)c(-c2cn[nH]c2)nc1NCCc1cccc(F)c1 [N-{[(2R)-1-(2-aminoacetyl)pyrrolidin-2-yl]methyl}(5-fluoro-2-{[2-(3-fluorophenyl)ethyl]amino}-6-pyrazol-4-yl(3-pyridyl))carboxamide] was tested. Which IC50 did it give?
A: Its IC50 is 61 nM.

Q: With N#Cc1ccccc1-c1ccc(C(=O)NC[C@H]2CCCN2C(=O)CN)c(NCCc2cccc(F)c2)n1 [N-{[(2R)-1-(2-aminoacetyl)pyrrolidin-2-yl]methyl}(6-(2-cyanophenyl)-2-{[2-(3-fluorophenyl)ethyl]amino}(3-pyridyl))carboxamide] as the compound, how does the IC50 read?
A: The IC50 was 25 nM.

Q: With N#Cc1ccccc1-c1nc(NCCc2cccc(F)c2)c(C(=O)NC[C@H]2CCCN2C(=O)CN)cc1F [N-{[(2R)-1-(2-aminoacetyl)pyrrolidin-2-yl]methyl}(6-(2-cyanophenyl)-5-fluoro-2-{[2-(3-fluorophenyl)ethyl]amino}(3-pyridyl))carboxamide] as the compound, how does the IC50 read?
A: The IC50 was 40 nM.

Q: How did the IC50 turn out when N#Cc1ccccc1-c1ccc(C(=O)NC[C@H]2CCC(=O)N2CCN)c(NCCc2cccc(F)c2)n1 [N-{[(2R)-1-(2-aminoethyl)-5-oxopyrrolidin-2-yl]methyl}(6-(2-cyanophenyl)-2-{[2-(3-fluorophenyl)ethyl]amino}(3-pyridyl))carboxamide] was run?
A: The IC50 was 110 nM.

Q: N#Cc1ccccc1-c1ccc(C(=O)NC[C@H]2CCCN2CCN)c(NCCc2cccc(F)c2)n1 [N-{[(2R)-1-(2-aminoethyl)pyrrolidin-2-yl]methyl}(6-(2-cyanophenyl)-2-{[2-(3-fluorophenyl)ethyl]amino}(3-pyridyl))carboxamide] was tested. Which IC50 did it give?
A: The IC50 was 705 nM.

Q: For Cn1cc(-c2nc(NCCc3cccc(F)c3)c(C(=O)NC[C@H]3CCN3C(=O)C(C)(C)O)cc2F)cn1 [N-{[(2R)-1-(2-hydroxy-2-methylpropanoyl)azetidin-2-yl]methyl}(5-fluoro-2-{[2-(3-fluorophenyl)ethyl]amino}-6-(1-methylpyrazol-4-yl)(3-pyridyl))carboxamide], which IC50 is on record?
A: Its IC50 is 141 nM.

Q: O=C(NC[C@H]1CCN1C(=O)CO)c1ccc(-c2ccc(CO)s2)nc1NCCc1cccc(F)c1 [N-{[(2R)-1-(2-hydroxyacetyl)azetidin-2-yl]methyl}(2-{[2-(3-fluorophenyl)ethyl]amino}-6-[5-(hydroxymethyl)(2-thienyl)](3-pyridyl))carboxamide] was tested. Which IC50 did it give?
A: The IC50 was 2540 nM.

Q: Which IC50 does the source give for O=C(NC[C@H]1CCN1C(=O)CO)c1ccc(-c2cn[nH]c2)nc1NCCc1cccc(F)c1 [N-{[(2R)-1-(2-hydroxyacetyl)azetidin-2-yl]methyl}(2-{[2-(3-fluorophenyl)ethyl]amino}-6-pyrazol-4-yl(3-pyridyl))carboxamide] here?
A: The IC50 was 559 nM.

Q: How did the IC50 turn out when Cn1cc(-c2nc(NCCc3cccc(F)c3)c(C(=O)NC[C@H]3CCN3C(=O)CO)cc2F)cn1 [N-{[(2R)-1-(2-hydroxyacetyl)azetidin-2-yl]methyl}(5-fluoro-2-{[2-(3-fluorophenyl)ethyl]amino}-6-(1-methylpyrazol-4-yl)(3-pyridyl))carboxamide] was run?
A: Its IC50 is 47 nM.

Q: How did the IC50 turn out when O=C(NC[C@H]1CCN1C(=O)CO)c1cc(F)c(-c2cn[nH]c2)nc1NCCc1cccc(F)c1 [N-{[(2R)-1-(2-hydroxyacetyl)azetidin-2-yl]methyl}(5-fluoro-2-{[2-(3-fluorophenyl)ethyl]amino}-6-pyrazol-4-yl(3-pyridyl))carboxamide] was run?
A: Its IC50 is 46 nM.

Q: With N#Cc1ccccc1-c1ccc(C(=O)NC[C@H]2CCN2C(=O)CO)c(NCCc2cccc(F)c2)n1 [N-{[(2R)-1-(2-hydroxyacetyl)azetidin-2-yl]methyl}(6-(2-cyanophenyl)-2-{[2-(3-fluorophenyl)ethyl]amino}(3-pyridyl))carboxamide] as the compound, how does the IC50 read?
A: The IC50 was 40 nM.

Q: Cn1cc(-c2ccc(C(=O)NC[C@H]3CCCN3C(=O)CO)c(NCCc3cccc(F)c3)n2)cn1 [N-{[(2R)-1-(2-hydroxyacetyl)pyrrolidin-2-yl]methyl}(2-{[2-(3-fluorophenyl)ethyl]amino}-6-(1-methylpyrazol-4-yl)(3-pyridyl))carboxamide] was tested. Which IC50 did it give?
A: Its IC50 is 1780 nM.

Q: O=C(NC[C@H]1CCCN1C(=O)CO)c1ccc(-c2cn[nH]c2)nc1NCCc1cccc(F)c1 [N-{[(2R)-1-(2-hydroxyacetyl)pyrrolidin-2-yl]methyl}(2-{[2-(3-fluorophenyl)ethyl]amino}-6-pyrazol-4-yl(3-pyridyl))carboxamide] was tested. Which IC50 did it give?
A: The IC50 was 1190 nM.

Q: N#Cc1ccccc1-c1ccc(C(=O)NC[C@H]2CCCN2C(=O)CO)c(NCCc2cccc(F)c2)n1 [N-{[(2R)-1-(2-hydroxyacetyl)pyrrolidin-2-yl]methyl}(6-(2-cyanophenyl)-2-{[2-(3-fluorophenyl)ethyl]amino}(3-pyridyl))carboxamide] was tested. Which IC50 did it give?
A: The IC50 was 116 nM.

Q: How did the IC50 turn out when N#Cc1ccccc1-c1ccc(C(=O)NC[C@H]2CCCCN2C(=O)CCN)c(NCCc2cccc(F)c2)n1 [N-{[(2R)-1-(3-aminopropanoyl)(2-piperidyl)]methyl}(6-(2-cyanophenyl)-2-{[2-(3-fluorophenyl)ethyl]amino}(3-pyridyl))carboxamide] was run?
A: Its IC50 is 155 nM.

Q: N#Cc1ccccc1-c1ccc(C(=O)NC[C@H]2CCN2C(=O)CCN)c(NCCc2cccc(F)c2)n1 [N-{[(2R)-1-(3-aminopropanoyl)azetidin-2-yl]methyl}(6-(2-cyanophenyl)-2-{[2-(3-fluorophenyl)ethyl]amino}(3-pyridyl))carboxamide] was tested. Which IC50 did it give?
A: Its IC50 is 45 nM.

Q: Which IC50 does the source give for N#Cc1ccccc1-c1ccc(C(=O)NC[C@H]2CNCCN2C(=O)CCN)c(NCCc2cccc(F)c2)n1 [N-{[(2R)-1-(3-aminopropanoyl)piperazin-2-yl]methyl}(6-(2-cyanophenyl)-2-{[2-(3-fluorophenyl)ethyl]amino}(3-pyridyl))carboxamide] here?
A: The IC50 was 4890 nM.

Q: Cn1cc(-c2ccc(C(=O)NC[C@H]3CCCN3C(=O)CCN)c(NCCc3cccc(F)c3)n2)cn1 [N-{[(2R)-1-(3-aminopropanoyl)pyrrolidin-2-yl]methyl}(2-{[2-(3-fluorophenyl)ethyl]amino}-6-(1-methylpyrazol-4-yl)(3-pyridyl))carboxamide] was tested. Which IC50 did it give?
A: The IC50 was 587 nM.

Q: For Cn1cc(-c2nc(NCCc3cccc(F)c3)c(C(=O)NC[C@H]3CCCN3C(=O)CCN)cc2F)cn1 [N-{[(2R)-1-(3-aminopropanoyl)pyrrolidin-2-yl]methyl}(5-fluoro-2-{[2-(3-fluorophenyl)ethyl]amino}-6-(1-methylpyrazol-4-yl)(3-pyridyl))carboxamide], which IC50 is on record?
A: The IC50 was 70 nM.

Q: For NCCC(=O)N1CCC[C@@H]1CNC(=O)c1cc(F)c(-c2cn[nH]c2)nc1NCCc1cccc(F)c1 [N-{[(2R)-1-(3-aminopropanoyl)pyrrolidin-2-yl]methyl}(5-fluoro-2-{[2-(3-fluorophenyl)ethyl]amino}-6-pyrazol-4-yl(3-pyridyl))carboxamide], which IC50 is on record?
A: The IC50 was 90 nM.

Q: Which IC50 does the source give for N#Cc1ccccc1-c1ccc(C(=O)NC[C@H]2CCCN2C(=O)CCN)c(NCCc2cccc(F)c2)n1 [N-{[(2R)-1-(3-aminopropanoyl)pyrrolidin-2-yl]methyl}(6-(2-cyanophenyl)-2-{[2-(3-fluorophenyl)ethyl]amino}(3-pyridyl))carboxamide] here?
A: The IC50 was 47 nM.
